Source: US20220024921A1, “1,3,4-OXADIAZOLONE COMPOUND AND PHARMACEUTICAL” (NIPPON SHINYAKU CO., LTD., priority 2018, published 2022)
Structures can show the parent of a compound that is named as a salt.

Legend:
[1] = target: T1, PIM1 serine/threonine kinase (Homo sapiens, UniProt P11309); test: PIM1 serine/threonine kinase inhibitory effect; type: biochemical; conditions: PIM1 serine/threonine kinase activity; ATP 40 μM; 30° C., 30 minutes
T1 construct: purchased Carna Bioscience, Inc
In short: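 Recombinant PIM1 (0.15 μg/ml final) with 0.5 μM biotinylated substrate and 40 μM ATP in pH 7.0 HEPES/MgCl2 buffer, 30 min at 30° C. Compound range was 0.01–10000 nM final, n=2. HTRF detection with streptavidin-XL665 and anti-phospho antibody-cryptate, 1 h; IC50 from non-linear regression of the 665/620 ratio.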

[2] = target: PIM1 transgenic cells (Ba/F3) (Homo sapiens, UniProt P11309); test: Proliferation inhibitory effect on PIM1 transgenic cells; type: cell-based, mouse; conditions: proliferation inhibition, 72 hours, Cell Counting Kit-8, read-out: PIM1 IC50
In short: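 Mouse Ba/F3 pro-B cells were retrovirally transduced with human PIM1 so that their proliferation depends on PIM1. Cells were treated with compound at 1–10000 nM final for 72 h, then read by CCK-8 (OD450−OD650). Inhibition was set against DMSO (0%) and no-cell blank (100%), and IC50 was obtained by two-parameter logistic regression.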

T1 sequence (P11309 whole entry): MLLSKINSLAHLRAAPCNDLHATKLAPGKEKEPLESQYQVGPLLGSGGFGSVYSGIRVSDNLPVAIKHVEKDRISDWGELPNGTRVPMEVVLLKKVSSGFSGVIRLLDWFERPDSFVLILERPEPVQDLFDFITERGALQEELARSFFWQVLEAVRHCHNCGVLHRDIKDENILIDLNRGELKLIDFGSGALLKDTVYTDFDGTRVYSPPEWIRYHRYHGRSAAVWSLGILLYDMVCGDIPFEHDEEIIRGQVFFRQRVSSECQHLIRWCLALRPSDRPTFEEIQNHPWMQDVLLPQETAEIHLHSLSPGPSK
Chain of PIM1 transgenic cells (Ba/F3) (P11309 whole entry, stated change not applied): as the sequence (P11309 whole entry) above

Row | IC50 [1] | GI50 [2] | SMILES
1 | 0.001 µM | 0.075 µM | C[C@H](Nc1cc(-c2n[nH]c(=O)o2)cc(F)c1Br)C1CCNCC1 [Example 83, 5-(4-bromo-3-fluoro-5-{[(1S)-1-(piperidin-4-yl)ethyl]amino}phenyl)-1,3,4-oxadiazol-2(3H)-one hydrochloride]
2 | 0.0057 µM | 0.41 µM | N[C@H]1CC[C@H](Nc2cc(-c3n[nH]c(=O)o3)ccc2Cl)CC1 [Example 32, 5-(3-{[(1r,4r)-4-aminocyclohexyl]amino}-4-chlorophenyl)-1,3,4-oxadiazol-2(3H)-one]
3 | 0.027 µM | 2.2 µM | NCCc1ccc(-c2cc(-c3n[nH]c(=O)o3)ccc2C(F)(F)F)cc1 [Example 22, 5-[4′-(2-aminoethyl)-6-(trifluoromethyl)[1,1′-biphenyl]-3-yl]-1,3,4-oxadiazol-2(3H)-one hydrochloride]
4 | 0.0026 µM | 0.28 µM | C[C@H](Nc1cc(-c2n[nH]c(=O)o2)cc(N)c1Cl)C1CCNCC1 [Example 92, 5-(3-amino-4-chloro-5-{[(1S)-1-(piperidin-4-yl)ethyl]amino}phenyl)-1,3,4-oxadiazol-2(3H)-one dihydrochloride]
5 | 0.004 µM | 0.073 µM | CC[C@H](Nc1cc(-c2n[nH]c(=O)o2)ccc1C(F)(F)F)C1CCNCC1 [Example 138, 5-[3-{[(1S)-1-(piperidin-4-yl)propyl]amino}-4-(trifluoromethyl)phenyl]-1,3,4-oxadiazol-2(3H)-one hydrochloride]
6 | 0.019 µM | 0.28 µM | CN(C[C@H]1CC[C@H](N)CC1)c1cc(-c2n[nH]c(=O)o2)ccc1C(F)(F)F [Example 130, 5-{3-[{[(1r,4r)-4-aminocyclohexyl]methyl}(methyl)amino]-4-(trifluoromethyl)phenyl}-1,3,4-oxadiazol-2(3H)-one hydrochloride]
7 | 0.065 µM | 0.88 µM | CC(=O)N[C@H]1C[C@@H](CNc2cc(-c3n[nH]c(=O)o3)ccc2C(F)(F)F)C1(C)C [Example 184, N-[(1S,3R)-2,2-dimethyl-3-{[5-(5-oxo-4,5-dihydro-1,3,4-oxadiazol-2-yl)-2-(trifluoromethyl)anilino]methyl}cyclobutyl]acetamide]
8 | 0.0035 µM | 0.045 µM | C[C@@H]1C[C@H]([C@H](C)Nc2cc(-c3n[nH]c(=O)o3)cc(F)c2OC(F)F)CCN1 [Example 216, 5-[4-(difluoromethoxy)-3-fluoro-5-({(1S)-1-[(2R,4R)-2-methylpiperidin-4-yl]ethyl}amino)phenyl]-1,3,4-oxadiazol-2(3H)-one]
9 | 0.02 µM | 0.39 µM | O=c1[nH]nc(-c2ccc(C(F)(F)F)c(N[C@H]3CCC34CCNCC4)c2)o1 [Example 45, 5-[3-{[(1S)-7-azaspiro[3.5]nonan-1-yl]amino}-4-(trifluoromethyl)phenyl]-1,3,4-oxadiazol-2(3H)-one hydrochloride]

More lines, now with the values behind:

Row | SMILES | IC50 [1] | GI50 [2]
10 | C[C@H](Nc1cc(-c2n[nH]c(=O)o2)cc(F)c1C(F)(F)F)C1(C)CCNCC1 [Example 206, 5-[3-fluoro-5-{[(1S)-1-(4-methylpiperidin-4-yl)ethyl]amino}-4-(trifluoromethyl)phenyl]-1,3,4-oxadiazol-2(3H)-one] | 0.0017 µM | 0.032 µM
11 | O=c1[nH]nc(-c2ccc(C(F)(F)F)c(N[C@@H](C(F)F)C3CCNCC3)c2)o1 [Example 113, 5-[3-{[(1R)-2,2-difluoro-1-(piperidin-4-yl)ethyl]amino}-4-(trifluoromethyl)phenyl]-1,3,4-oxadiazol-2(3H)-one hydrochloride] | 0.0036 µM | 0.081 µM
12 | O=c1[nH]nc(-c2ccc(C(F)(F)F)c(N[C@@H]3CCC34CCNCC4)c2)o1 [Example 46, 5-[3-{[(1R)-7-azaspiro[3.5]nonan-1-yl]amino}-4-(trifluoromethyl)phenyl]-1,3,4-oxadiazol-2(3H)-one hydrochloride] | 0.29 µM | 2.6 µM
13 | C[C@H](Nc1cc(-c2n[nH]c(=O)o2)ccc1C(F)(F)F)C1CCCNCC1 (stereo partly drawn) [Example 157, 5-[3-{[(1S)-1-(azepan-4-yl)ethyl]amino}-4-(trifluoromethyl)phenyl]-1,3,4-oxadiazol-2(3H)-one hydrochloride] | 0.0033 µM | 0.065 µM
14 | O=c1[nH]nc(-c2ccc(C(F)(F)F)c(NC[C@@H]3CCCNC3)c2)o1 [Example 54, 5-[3-({[(3R)-piperidin-3-yl]methyl}amino)-4-(trifluoromethyl)phenyl]-1,3,4-oxadiazol-2(3H)-one hydrochloride] | 0.013 µM | 1.2 µM
15 | N[C@H]1CC[C@H](CN2CCCc3ccc(-c4n[nH]c(=O)o4)cc32)CC1 [Example 244, 5-(1-{[(1r,4r)-4-aminocyclohexyl]methyl}-1,2,3,4-tetrahydroquinolin-7-yl)-1,3,4-oxadiazol-2(3H)-one] | 0.011 µM | 0.14 µM
16 | CC[C@H](Nc1cc(-c2n[nH]c(=O)o2)cc(F)c1C(F)(F)F)[C@H]1CC[C@H](N)CC1 [Example 198, 5-[3-({(1S)-1-[(1r,4S)-4-aminocyclohexyl]propyl}amino)-5-fluoro-4-(trifluoromethyl)phenyl]-1,3,4-oxadiazol-2(3H)-one] | 0.0035 µM | 0.1 µM
17 | C[C@H](Nc1cc(-c2n[nH]c(=O)o2)ccc1C(F)F)C1CCNCC1 [Example 90, 5-[4-(difluoromethyl)-3-{[(1S)-1-(piperidin-4-yl)ethyl]amino}phenyl]-1,3,4-oxadiazol-2(3H)-one] | 0.021 µM | 3.8 µM
18 | C[C@H](Nc1cc(-c2n[nH]c(=O)o2)cc(Cl)c1Cl)C1CCNCC1 [Example 79, 5-(3,4-dichloro-5-{[(1S)-1-(piperidin-4-yl)ethyl]amino}phenyl)-1,3,4-oxadiazol-2(3H)-one dihydrochloride] | 0.0008 µM | 0.053 µM
19 | C[C@H](Nc1cc(-c2n[nH]c(=O)o2)ccc1C(F)(F)F)C1CCCNCCC1 [Example 162, 5-[3-{[(1S)-1-(azocan-5-yl)ethyl]amino}-4-(trifluoromethyl)phenyl]-1,3,4-oxadiazol-2(3H)-one hydrochloride] | 0.0087 µM | 0.14 µM
20 | O=c1[nH]nc(-c2cc(F)c(C(F)(F)F)c(NCC3(F)CCNCC3)c2)o1 [Example 129, 5-[3-fluoro-5-{[(4-fluoropiperidin-4-yl)methyl]amino}-4-(trifluoromethyl)phenyl]-1,3,4-oxadiazol-2(3H)-one hydrochloride] | 0.0082 µM | 0.36 µM
21 | NCC1CCN(c2cc(-c3n[nH]c(=O)o3)ccc2Cl)CC1 [Example 6, 5-{3-[4-(aminomethyl)piperidin-1-yl]-4-chlorophenyl}-1,3,4-oxadiazol-2(3H)-one] | 0.059 µM | 3.6 µM
22 | N[C@H]1CC[C@H](CCc2cc(-c3n[nH]c(=O)o3)ccc2C(F)(F)F)CC1 [Example 27, 5-[3-{2-[(1r,4s)-4-aminocyclohexyl]ethyl}-4-(trifluoromethyl)phenyl]-1,3,4-oxadiazol-2(3H)-one hydrochloride] | 0.0041 µM | 0.2 µM
23 | CC(Oc1cc(-c2n[nH]c(=O)o2)ccc1Br)C1CCNCC1 (stereo not drawn) [Example 236] | 0.0087 µM | 0.18 µM
24 | CC(C)Oc1c(F)cc(-c2n[nH]c(=O)o2)cc1N[C@@H](C)[C@H]1CC[C@H](N)CC1 [Example 175, 5-{3-({(1S)-1-[(1r,4S)-4-aminocyclohexyl]ethyl}amino)-5-fluoro-4-[(propan-2-yl)oxy]phenyl}-1,3,4-oxadiazol-2(3H)-one dihydrochloride] | 0.017 µM | 0.32 µM
25 | CC1(CCNc2cc(-c3n[nH]c(=O)o3)ccc2C(F)(F)F)CCNCC1 [Example 70, 5-[3-{[2-(4-methylpiperidin-4-yl)ethyl]amino}-4-(trifluoromethyl)phenyl]-1,3,4-oxadiazol-2(3H)-one hydrochloride] | 0.0042 µM | 1.7 µM
26 | O=c1[nH]nc(-c2ccc(C(F)(F)F)c(/C=C/C3CCNCC3)c2)o1 [Example 30, 5-{3-[(E)-2-(piperidin-4-yl)ethenyl]-4-(trifluoromethyl)phenyl}-1,3,4-oxadiazol-2(3H)-one hydrochloride] | 0.024 µM | 0.97 µM
27 | O=c1[nH]nc(-c2ccc(C(F)(F)F)c(NC3CC34CCNCC4)c2)o1 (stereo not drawn) [Example 42, 5-{3-[(6-azaspiro[2.5]octan-1-yl)amino]-4-(trifluoromethyl)phenyl}-1,3,4-oxadiazol-2(3H)-one hydrochloride] | 0.01 µM | 0.27 µM
28 | N[C@H]1CC[C@H](Nc2cc(-c3n[nH]c(=O)o3)cc(F)c2C(F)(F)F)CC1 [Example 36, 5-[3-{[(1r,4r)-4-aminocyclohexyl]amino}-5-fluoro-4-(trifluoromethyl)phenyl]-1,3,4-oxadiazol-2(3H)-one hydrochloride] | 0.0031 µM | 0.57 µM
29 | CCOc1c(F)cc(-c2n[nH]c(=O)o2)cc1N[C@@H](C)[C@H]1CC[C@H](N)CC1 [Example 173, 5-[3-({(1S)-1-[(1r,4S)-4-aminocyclohexyl]ethyl}amino)-4-ethoxy-5-fluorophenyl]-1,3,4-oxadiazol-2(3H)-one dihydrochloride] | 0.01 µM | 0.25 µM
30 | Cc1cc(Cl)c(N[C@@H](C)C2CCNCC2)cc1-c1n[nH]c(=O)o1 [Example 94, 5-(4-chloro-2-methyl-5-{[(1S)-1-(piperidin-4-yl)ethyl]amino}phenyl)-1,3,4-oxadiazol-2(3H)-one hydrochloride] | 0.0084 µM | 0.14 µM
